Measurements as given in patent US5968907A (priority 1997, dated 1999).

Assays:
[1] = biological target: heat-labile enterotoxin from E. coli (Escherichia coli, UniProt P0CK94); format: binding; conditions: at the concentration employed in the assay
cholera toxin = cholera toxin (Vibrio cholerae serotype O1, UniProt P01556); test: biochemical; conditions: read-out: inhibition of binding of cholera toxin to ganglioside GD1b
CFA I pili = CFA I pili (Escherichia coli, UniProt P0CK93+P25734); test: biochemical; conditions: read-out: inhibition of CFA I pili binding to glycophorin
Chain of CFA I pili (P0CK93 24-170): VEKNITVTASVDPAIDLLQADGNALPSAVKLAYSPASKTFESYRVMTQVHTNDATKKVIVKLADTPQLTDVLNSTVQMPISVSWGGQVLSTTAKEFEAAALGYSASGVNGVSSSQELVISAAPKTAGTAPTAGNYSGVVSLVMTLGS
Chain of CFA I pili (P25734 23-360): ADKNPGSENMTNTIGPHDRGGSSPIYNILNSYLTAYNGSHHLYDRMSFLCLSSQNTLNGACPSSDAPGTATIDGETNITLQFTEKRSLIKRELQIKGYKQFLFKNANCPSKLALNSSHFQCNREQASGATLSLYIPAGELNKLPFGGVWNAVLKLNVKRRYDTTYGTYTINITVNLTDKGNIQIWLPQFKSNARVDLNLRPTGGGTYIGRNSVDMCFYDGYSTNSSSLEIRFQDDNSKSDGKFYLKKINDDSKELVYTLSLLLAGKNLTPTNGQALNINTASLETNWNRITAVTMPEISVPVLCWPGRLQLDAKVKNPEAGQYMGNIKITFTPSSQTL

Chain of cholera toxin (P01556 22-124 limits assumed): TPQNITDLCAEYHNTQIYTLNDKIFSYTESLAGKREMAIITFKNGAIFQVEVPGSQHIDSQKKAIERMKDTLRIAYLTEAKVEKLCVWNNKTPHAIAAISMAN
Chain of heat-labile enterotoxin from E. coli (P0CK94 whole entry, looked up): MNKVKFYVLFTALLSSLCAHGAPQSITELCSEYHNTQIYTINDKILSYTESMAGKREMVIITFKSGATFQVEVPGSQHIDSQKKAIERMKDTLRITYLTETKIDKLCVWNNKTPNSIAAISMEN

Compound	inhibition of binding of heat-labile enterotoxin to ganglioside GD1b [1]	inhibition at 1000 µg/mL (cholera toxin) [%]	inhibition at 1000 µg/mL (CFA I pili) [%]
O=C(O)[C@H](Cc1c[nH]c2ccccc12)NC1CCCCC1S[C@@H]1O[C@H](CO)[C@H](O)[C@H](O)[C@H]1O (stereo partly drawn) [Example I2, Nα-[2-(1-Thio-β-D-galactopyranosyl)cyclohex-1-yl]-L-tryptophan]	at least 20%	< 20	13 to 71
CC(CC(S[C@@H]1O[C@H](CO)[C@H](O)[C@H](O)[C@H]1O)c1ccccc1)N[C@@H](Cc1c[nH]cn1)C(=O)O (stereo partly drawn) [Example H3, Nα-[4-Phenyl-4-(1-thio-β-D-galactopyranosyl)but-2-yl]-L-histidine]	–	≥ 20	13 to 71
O=C(O)[C@H](Cc1c[nH]c2ccccc12)NC1CCCC1S[C@@H]1O[C@H](CO)[C@H](O)[C@H](O)[C@H]1O (stereo partly drawn) [Example I1, Nα-[2-(1-Thio-β-D-galactopyranosyl)cyclopent-1-yl]-L-tryptophan]	–	≥ 20	13 to 71
O=C(O)[C@H](Cc1c[nH]cn1)NC1CCCCC1S[C@@H]1O[C@H](CO)[C@H](O)[C@H](O)[C@H]1O (stereo partly drawn) [Example H2, Nα-[2-(1-Thio-β-D-galactopyranosyl)cyclohex-1-yl]-L-histidine]	–	< 20	13 to 71
O=C(O)[C@H](Cc1c[nH]cn1)NC1CCCC(S[C@@H]2O[C@H](CO)[C@H](O)[C@H](O)[C@H]2O)C1 (stereo partly drawn) [Example H10, Nα-[3-(1-Thio-β-D-galactopyranosyl)cyclohex-1-yl]-L-histidine]	–	< 20	13 to 71
CC1(C)CCC(N[C@@H](Cc2c[nH]cn2)C(=O)O)CC1S[C@@H]1O[C@H](CO)[C@H](O)[C@H](O)[C@H]1O (stereo partly drawn) [Example H9, Nα-[4,4-Dimethyl-3-(1-thio-β-D-galactopyranosyl)-cyclohex-1-yl]-L-histidine]	–	< 20	13 to 71
CC(CC(C)S[C@@H]1O[C@H](CO)[C@H](O)[C@H](O)[C@H]1O)N[C@@H](Cc1c[nH]cn1)C(=O)O (stereo partly drawn) [Example H8, Nα-[4-(1-Thio-β-D-galactopyranosyl)pent-2-yl]-L-histidine]	–	< 20	13 to 71
NC1CCCCC1S[C@@H]1O[C@H](CO)[C@H](O)[C@H](O)[C@H]1O (stereo partly drawn) [Example B2, 2-Aminocyclohex-1-yl 1-Thio-β-D-galactopyranoside]	at least 20%	–	13 to 71
